Measured values from patent publication US20140303164A1, “THERAPEUTIC COMPOUNDS” (Gilead Sciences, Inc., priority 2013, published 2014).

Experiments:
[1] = Test B: Cytotoxicity Assay; assay type: cell-based; conditions: human, uninfected MT-4 cells, same protocol as Test A
How it was run: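 Uninfected MT-4 cells (2000 per well) incubated with diluted compound at 37° C. for 5 days, following the antiviral protocol without HIV-IIIb.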

[2] = test system: HIV-IIIb; experiment: Test A: Antiviral Assay in MT4 Cells; assay type: cell-based, HIV-1; conditions: Human immunodeficiency virus 1, IIIB, MT4, 120 h; for inhibition at 0.2 µM: read-out: % inhibition at 0.2 μM; for inhibition at 2 µM: read-out: % inhibition at 2 μM
Method: Test A: Antiviral Assay in MT4 Cells
MT-4 cells were next mixed with HIV-IIIb at an m.o.i of 0.003 for 1 hour, after which time 35 μL of virus/cell mixture (2000 cells) was immediately added to each well containing 40 μL of diluted compound. The plates were then incubated at 37° C. for 5 days. […] Cell lysis was carried out by incubating at room temperature for 10 min and then chemiluminescence was read.

In the case of `CN(C)c1cc(-c2ccc(Cl)c3c(NS(C)(=O)=O)nn(C)c23)c([C@H](Cc2cc(F)cc(F)c2)NC(=O)Cn2nc(C(F)F)c3c2C(F)(F)[C@@H]2C[C@H]32)nc1C#CC(C)(C)O` [Compound 183F, N—((S)-1-(3-(4-chloro-1-methyl-3-(methylsulfonamido)-1H-indazol-7-yl)-5-(dimethylamino)-6-(3-hydroxy-3-methylbut-1-yn-1-yl)pyridin-2-yl)-2-(3,5-difluorophenyl)ethyl)-2-((3b-S,4aR)-3-(difluoromethyl)-5,5-difluoro-3b,4,4a,5-tetrahydro-1H-cyclopropa[3,4]cyclopenta[1,2-c]pyrazol-1-yl)acetamide], the CC50 at 5 days [1] is reported as 12.4 µM, the inhibition at 0.2 µM [2] is reported as 84% and the inhibition at 2 µM [2] is reported as 84%.

Molecule `CN(C)CC(=O)Nc1nn(C)c2c(-c3ccc(C#CC(C)(C)O)nc3[C@H](Cc3cc(F)cc(F)c3)NC(=O)Cn3nc(C(F)F)c4c3C(F)(F)[C@@H]3C[C@H]43)ccc(Cl)c12` [Compound 99B, N—((S)-1-(3-(4-chloro-3-(2-(dimethylamino)acetamido)-1-methyl-1H-indazol-7-yl)-6-(3-hydroxy-3-methylbut-1-yn-1-yl)pyridin-2-yl)-2-(3,5-difluorophenyl)ethyl)-2-((3b-S,4aR)-3-(difluoromethyl)-5,5-difluoro-3b,4,4a,5-tetrahydro-1H-cyclopropa[3,4]cyclopenta[1,2-c]pyrazol-1-yl)acetamide] has a CC50 at 5 days [1] of 6.37 µM, an inhibition at 0.2 µM [2] of 100% and an inhibition at 2 µM [2] of 100%.

Work on `CC(C)(O)C#Cc1ccc(-c2ccc3n[nH]c(=O)n3c2)c([C@H](Cc2cc(F)cc(F)c2)NC(=O)Cn2nc(C(F)(F)F)c3c2C(F)(F)[C@@H]2C[C@H]32)n1` [Compound 26, 2-((3bS,4aR)-5,5-difluoro-3-(trifluoromethyl)-3b,4,4a,5-tetrahydro-1H-cyclopropa[3,4]cyclopenta[1,2-c]pyrazol-1-yl)-N—((S)-2-(3,5-difluorophenyl)-1-(6-(3-hydroxy-3-methylbut-1-yn-1-yl)-3-(3-oxo-2,3-dihydro-[1,2,4]triazolo[4,3-a]pyridin-6-yl)pyridin-2-yl)ethyl)acetamide] yielded a CC50 at 5 days [1] of 10 µM, an inhibition at 0.2 µM [2] of 84% and an inhibition at 2 µM [2] of 100%.

`CC(C)C(O)C#Cc1ccc(-c2cccc3c(NS(C)(=O)=O)nn(C)c23)c([C@H](Cc2cc(F)cc(F)c2)NC(=O)Cn2nc(C(F)(F)F)c3c2C(F)(F)[C@@H]2C[C@H]32)n1` (stereo partly drawn) [Compound 64, 2-((3bS,4aR)-5,5-difluoro-3-(trifluoromethyl)-3b,4,4a,5-tetrahydro-1H-cyclopropa[3,4]cyclopenta[1,2-c]pyrazol-1-yl)-N-((1S)-2-(3,5-difluorophenyl)-1-(6-(3-hydroxy-4-methylpent-1-yn-1-yl)-3-(1-methyl-3-(methylsulfonamido)-1H-indazol-7-yl)pyridin-2-yl)ethyl)acetamide] showed a CC50 at 5 days [1] of 7.7 µM, an inhibition at 0.2 µM [2] of 98% and an inhibition at 2 µM [2] of 98%.

In the case of `CC(C)(O)C#Cc1ncc(-c2ccc3c(c2)C(=O)NC3)c([C@H](Cc2cc(F)cc(F)c2)NC(=O)Cn2nc(C(F)F)c3c2C(F)(F)CCC3(F)F)n1` [Compound 21H, (S)-2-(3-(difluoromethyl)-4,4,7,7-tetrafluoro-4,5,6,7-tetrahydro-1H-indazol-1-yl)-N-(2-(3,5-difluorophenyl)-1-(2-(3-hydroxy-3-methylbut-1-yn-1-yl)-5-(3-oxoisoindolin-5-yl)pyrimidin-4-yl)ethyl)acetamide], the CC50 at 5 days [1] is reported as 7.63 µM, the inhibition at 0.2 µM [2] is reported as 92% and the inhibition at 2 µM [2] is reported as 92%.

`Cn1nc(O)c2cccc(-c3ccc(C#CC(C)(C)O)nc3[C@H](Cc3cc(F)cc(F)c3)NC(=O)Cn3nc(C(F)F)c4c3C(F)(F)[C@@H]3C[C@H]43)c21` [Compound 107B, 2-((3bS,4aR)-3-(difluoromethyl)-5,5-difluoro-3b,4,4a,5-tetrahydro-1H-cyclopropa[3,4]cyclopenta[1,2-c]pyrazol-1-yl)-N—((S)-2-(3,5-difluorophenyl)-1-(6-(3-hydroxy-3-methylbut-1-yn-1-yl)-3-(1-methyl-3-oxo-2,3-dihydro-1H-indazol-7-yl)pyridin-2-yl)ethyl)acetamide] gave a CC50 at 5 days [1] of 5.3 µM, an inhibition at 0.2 µM [2] of 95% and an inhibition at 2 µM [2] of 95%.

Work on `COCC(=O)Nc1nn(C)c2c(-c3ccc(C#CC(C)(C)O)nc3[C@H](Cc3cc(F)cc(F)c3)NC(=O)Cn3nc(C(F)F)c4c3C(F)(F)[C@@H]3C[C@H]43)ccc(Cl)c12` [Compound 84, N—((S)-1-(3-(4-chloro-3-(2-methoxyacetamido)-1-methyl-1H-indazol-7-yl)-6-(3-hydroxy-3-methylbut-1-yn-1-yl)pyridin-2-yl)-2-(3,5-difluorophenyl)ethyl)-2-((3b-S,4aR)-3-(difluoromethyl)-5,5-difluoro-3b,4,4a,5-tetrahydro-1H-cyclopropa[3,4]cyclopenta[1,2-c]pyrazol-1-yl)acetamide] yielded a CC50 at 5 days [1] of 8.73 µM, an inhibition at 0.2 µM [2] of 100% and an inhibition at 2 µM [2] of 100%.

Molecule `Cn1cnc(S(=O)(=O)Nc2nn(C)c3c(-c4ccc(C#CC(C)(C)O)nc4[C@H](Cc4cc(F)cc(F)c4)NC(=O)Cn4nc(C(F)(F)F)c5c4C(F)(F)[C@@H]4C[C@H]54)cccc23)c1` [Compound 47, 2-((3bS,4aR)-5,5-difluoro-3-(trifluoromethyl)-3b,4,4a,5-tetrahydro-1H-cyclopropa[3,4]cyclopenta[1,2-c]pyrazol-1-yl)-N—((S)-2-(3,5-difluorophenyl)-1-(6-(3-hydroxy-3-methylbut-1-yn-1-yl)-3-(1-methyl-3-(1-methyl-1H-imidazole-4-sulfonamido)-1H-indazol-7-yl)pyridin-2-yl)ethyl)acetamide] has a CC50 at 5 days [1] of 21.4 µM, an inhibition at 0.2 µM [2] of 100% and an inhibition at 2 µM [2] of 100%.

In the case of `CC(C)(O)C#Cc1ccc(-c2cccn3c(C(F)F)nnc23)c([C@H](Cc2cc(F)cc(F)c2)NC(=O)Cn2nc(C(F)F)c3c2C(F)(F)[C@@H]2C[C@H]32)n1` [Compound 138, 2-((3b-S,4aR)-3-(difluoromethyl)-5,5-difluoro-3b,4,4a,5-tetrahydro-1H-cyclopropa[3,4]cyclopenta[1,2-c]pyrazol-1-yl)-N—((S)-1-(3-(3-(difluoromethyl)-[1,2,4]triazolo[4,3-a]pyridin-8-yl)-6-(3-hydroxy-3-methylbut-1-yn-1-yl)pyridin-2-yl)-2-(3,5-difluorophenyl)ethyl)acetamide], the CC50 at 5 days [1] is reported as 33.4 µM, the inhibition at 0.2 µM [2] is reported as 61% and the inhibition at 2 µM [2] is reported as 83%.

Molecule `Cn1nc(NS(C)(=O)=O)c2c(Cl)ccc(-c3ccc(C#CCOCCO)nc3[C@H](Cc3cc(F)cc(F)c3)NC(=O)Cn3nc(C(F)(F)F)c4c3C(F)(F)[C@@H]3C[C@H]43)c21` [Compound 153, N—((S)-1-(3-(4-chloro-1-methyl-3-(methylsulfonamido)-1H-indazol-7-yl)-6-(3-(2-hydroxyethoxy)prop-1-yn-1-yl)pyridin-2-yl)-2-(3,5-difluorophenyl)ethyl)-2-((3b-S,4aR)-5,5-difluoro-3-(trifluoromethyl)-3b,4,4a,5-tetrahydro-1H-cyclopropa[3,4]cyclopenta[1,2-c]pyrazol-1-yl)acetamide] has a CC50 at 5 days [1] of 18.6 µM, an inhibition at 0.2 µM [2] of 98% and an inhibition at 2 µM [2] of 98%.

Work on `CC(C)C(=O)Nc1nn(C)c2c(-c3ccc(C#CC(C)(C)O)nc3[C@H](Cc3cc(F)cc(F)c3)NC(=O)Cn3nc(C(F)F)c4c3C(F)(F)[C@@H]3C[C@H]43)ccc(Cl)c12` [Compound 96, N-(4-chloro-7-(2-((S)-1-(2-((3b-S,4aR)-3-(difluoromethyl)-5,5-difluoro-3b,4,4a,5-tetrahydro-1H-cyclopropa[3,4]cyclopenta[1,2-c]pyrazol-1-yl)acetamido)-2-(3,5-difluorophenyl)ethyl)-6-(3-hydroxy-3-methylbut-1-yn-1-yl)pyridin-3-yl)-1-methyl-1H-indazol-3-yl)isobutyramide] yielded a CC50 at 5 days [1] of 7 µM, an inhibition at 0.2 µM [2] of 100% and an inhibition at 2 µM [2] of 100%.

In the case of `CC(C)(C)C#Cc1ccc(-c2ccc(Cl)n3c(N)nnc23)c([C@H](Cc2cc(F)cc(F)c2)NC(=O)Cn2nc(C(F)F)c3c2C(F)(F)[C@@H]2C[C@H]32)n1` [Compound 115C, N—((S)-1-(3-(3-amino-5-chloro-[1,2,4]triazolo[4,3-a]pyridin-8-yl)-6-(3,3-dimethylbut-1-yn-1-yl)pyridin-2-yl)-2-(3,5-difluorophenyl)ethyl)-2-((3b-S,4aR)-3-(difluoromethyl)-5,5-difluoro-3b,4,4a,5-tetrahydro-1H-cyclopropa[3,4]cyclopenta[1,2-c]pyrazol-1-yl)acetamide], the CC50 at 5 days [1] is reported as 9.31 µM, the inhibition at 0.2 µM [2] is reported as 84% and the inhibition at 2 µM [2] is reported as 91%.

In the case of `Cn1nc(N)c2cccc(-c3ccc(C#CC(C)(C)O)nc3[C@H](Cc3cc(F)cc(F)c3)NC(=O)Cn3nc(C(F)(F)F)c4c3C(F)(F)[C@@H]3C[C@H]43)c21` [Compound 25, N—((S)-1-(3-(3-amino-1-methyl-1H-indazol-7-yl)-6-(3-hydroxy-3-methylbut-1-yn-1-yl)pyridin-2-yl)-2-(3,5-difluorophenyl)ethyl)-2-((3b-S,4aR)-5,5-difluoro-3-(trifluoromethyl)-3b,4,4a,5-tetrahydro-1H-cyclopropa[3,4]cyclopenta[1,2-c]pyrazol-1-yl)acetamide], the CC50 at 5 days [1] is reported as 9.14 µM, the inhibition at 0.2 µM [2] is reported as 89% and the inhibition at 2 µM [2] is reported as 89%.

With `Cc1[nH]c2ccc(O)cc2c1CC(=O)N[C@@H](Cc1cc(F)cc(F)c1)c1nc(C#CC(C)(C)O)ccc1-c1ccc(Cl)c2c(NS(C)(=O)=O)nn(C)c12` [Compound 192, (S)—N-(1-(3-(4 chloro-1-methyl-3-(methylsulfonamido)-1H-indazol-7-yl)-6-(3-hydroxy-3-methylbut-1-yn-1-yl)pyridin-2-yl)-2-(3,5-difluorophenyl)ethyl)-2-(5-hydroxy-2-methyl-1H-indol-3-yl)acetamide] the CC50 at 5 days [1] was 28.8 µM, the inhibition at 0.2 µM [2] was 95% and the inhibition at 2 µM [2] was 98%.
